Experimental data reported in ChEMBL document CHEMBL5465560, “Selectivity Literature for EUbOPEN Chemogenomic Library” (2024).

Tests used:
[1] = target: MAP kinase-interacting serine/threonine-protein kinase 2 (Homo sapiens, UniProt Q9HBH9); assay: Selectivity interaction (KinomeScan (DiscoverX)) EUB0000595a MKNK2; settings: at 10 µM
[2] = target: Calcium/calmodulin-dependent protein kinase type II subunit delta (Homo sapiens) (UniProt Q13557); assay: Selectivity interaction (Kinase panel (DSF assay)) EUB0001559a CAMK2D
[3] = target: T1, Activin receptor type-1 (Homo sapiens) (UniProt Q04771); assay: Selectivity interaction (KinomeScan (DiscoverX)) EUB0000045b ACVR1
T1 sequence (whole entry): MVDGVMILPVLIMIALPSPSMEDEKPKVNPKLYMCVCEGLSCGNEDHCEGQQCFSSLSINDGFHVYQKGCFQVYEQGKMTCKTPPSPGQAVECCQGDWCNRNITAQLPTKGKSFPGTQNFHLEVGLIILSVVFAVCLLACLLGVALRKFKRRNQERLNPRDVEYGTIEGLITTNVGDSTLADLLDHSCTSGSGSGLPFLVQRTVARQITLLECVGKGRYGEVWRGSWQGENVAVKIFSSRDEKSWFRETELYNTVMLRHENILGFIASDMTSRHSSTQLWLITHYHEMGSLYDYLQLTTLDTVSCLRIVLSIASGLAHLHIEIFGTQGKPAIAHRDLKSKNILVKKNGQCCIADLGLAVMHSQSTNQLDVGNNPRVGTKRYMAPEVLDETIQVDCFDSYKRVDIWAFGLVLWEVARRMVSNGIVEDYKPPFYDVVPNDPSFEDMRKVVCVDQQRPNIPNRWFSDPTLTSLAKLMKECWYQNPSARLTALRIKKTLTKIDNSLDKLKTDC

[4] = target: RAC-beta serine/threonine-protein kinase (Homo sapiens) (UniProt P31751); assay: Selectivity interaction (KinomeScan (DiscoverX)) EUB0000666a AKT2; settings: at 10 µM
[5] = target: Histone-lysine N-methyltransferase 2C (Homo sapiens) (UniProt Q8NEZ4); assay: Selectivity interaction (Methyltransferase screen (radiometric assays, panel of 8 PRMTs, 21 protein lysine methyltransferases, 3 DNA methyltransferases, and one RNA methyltransferase)) EUB0000271b MLL3
Histone-lysine N-methyltransferase 2C (Homo sapiens), sequence (Q8NEZ4 whole entry): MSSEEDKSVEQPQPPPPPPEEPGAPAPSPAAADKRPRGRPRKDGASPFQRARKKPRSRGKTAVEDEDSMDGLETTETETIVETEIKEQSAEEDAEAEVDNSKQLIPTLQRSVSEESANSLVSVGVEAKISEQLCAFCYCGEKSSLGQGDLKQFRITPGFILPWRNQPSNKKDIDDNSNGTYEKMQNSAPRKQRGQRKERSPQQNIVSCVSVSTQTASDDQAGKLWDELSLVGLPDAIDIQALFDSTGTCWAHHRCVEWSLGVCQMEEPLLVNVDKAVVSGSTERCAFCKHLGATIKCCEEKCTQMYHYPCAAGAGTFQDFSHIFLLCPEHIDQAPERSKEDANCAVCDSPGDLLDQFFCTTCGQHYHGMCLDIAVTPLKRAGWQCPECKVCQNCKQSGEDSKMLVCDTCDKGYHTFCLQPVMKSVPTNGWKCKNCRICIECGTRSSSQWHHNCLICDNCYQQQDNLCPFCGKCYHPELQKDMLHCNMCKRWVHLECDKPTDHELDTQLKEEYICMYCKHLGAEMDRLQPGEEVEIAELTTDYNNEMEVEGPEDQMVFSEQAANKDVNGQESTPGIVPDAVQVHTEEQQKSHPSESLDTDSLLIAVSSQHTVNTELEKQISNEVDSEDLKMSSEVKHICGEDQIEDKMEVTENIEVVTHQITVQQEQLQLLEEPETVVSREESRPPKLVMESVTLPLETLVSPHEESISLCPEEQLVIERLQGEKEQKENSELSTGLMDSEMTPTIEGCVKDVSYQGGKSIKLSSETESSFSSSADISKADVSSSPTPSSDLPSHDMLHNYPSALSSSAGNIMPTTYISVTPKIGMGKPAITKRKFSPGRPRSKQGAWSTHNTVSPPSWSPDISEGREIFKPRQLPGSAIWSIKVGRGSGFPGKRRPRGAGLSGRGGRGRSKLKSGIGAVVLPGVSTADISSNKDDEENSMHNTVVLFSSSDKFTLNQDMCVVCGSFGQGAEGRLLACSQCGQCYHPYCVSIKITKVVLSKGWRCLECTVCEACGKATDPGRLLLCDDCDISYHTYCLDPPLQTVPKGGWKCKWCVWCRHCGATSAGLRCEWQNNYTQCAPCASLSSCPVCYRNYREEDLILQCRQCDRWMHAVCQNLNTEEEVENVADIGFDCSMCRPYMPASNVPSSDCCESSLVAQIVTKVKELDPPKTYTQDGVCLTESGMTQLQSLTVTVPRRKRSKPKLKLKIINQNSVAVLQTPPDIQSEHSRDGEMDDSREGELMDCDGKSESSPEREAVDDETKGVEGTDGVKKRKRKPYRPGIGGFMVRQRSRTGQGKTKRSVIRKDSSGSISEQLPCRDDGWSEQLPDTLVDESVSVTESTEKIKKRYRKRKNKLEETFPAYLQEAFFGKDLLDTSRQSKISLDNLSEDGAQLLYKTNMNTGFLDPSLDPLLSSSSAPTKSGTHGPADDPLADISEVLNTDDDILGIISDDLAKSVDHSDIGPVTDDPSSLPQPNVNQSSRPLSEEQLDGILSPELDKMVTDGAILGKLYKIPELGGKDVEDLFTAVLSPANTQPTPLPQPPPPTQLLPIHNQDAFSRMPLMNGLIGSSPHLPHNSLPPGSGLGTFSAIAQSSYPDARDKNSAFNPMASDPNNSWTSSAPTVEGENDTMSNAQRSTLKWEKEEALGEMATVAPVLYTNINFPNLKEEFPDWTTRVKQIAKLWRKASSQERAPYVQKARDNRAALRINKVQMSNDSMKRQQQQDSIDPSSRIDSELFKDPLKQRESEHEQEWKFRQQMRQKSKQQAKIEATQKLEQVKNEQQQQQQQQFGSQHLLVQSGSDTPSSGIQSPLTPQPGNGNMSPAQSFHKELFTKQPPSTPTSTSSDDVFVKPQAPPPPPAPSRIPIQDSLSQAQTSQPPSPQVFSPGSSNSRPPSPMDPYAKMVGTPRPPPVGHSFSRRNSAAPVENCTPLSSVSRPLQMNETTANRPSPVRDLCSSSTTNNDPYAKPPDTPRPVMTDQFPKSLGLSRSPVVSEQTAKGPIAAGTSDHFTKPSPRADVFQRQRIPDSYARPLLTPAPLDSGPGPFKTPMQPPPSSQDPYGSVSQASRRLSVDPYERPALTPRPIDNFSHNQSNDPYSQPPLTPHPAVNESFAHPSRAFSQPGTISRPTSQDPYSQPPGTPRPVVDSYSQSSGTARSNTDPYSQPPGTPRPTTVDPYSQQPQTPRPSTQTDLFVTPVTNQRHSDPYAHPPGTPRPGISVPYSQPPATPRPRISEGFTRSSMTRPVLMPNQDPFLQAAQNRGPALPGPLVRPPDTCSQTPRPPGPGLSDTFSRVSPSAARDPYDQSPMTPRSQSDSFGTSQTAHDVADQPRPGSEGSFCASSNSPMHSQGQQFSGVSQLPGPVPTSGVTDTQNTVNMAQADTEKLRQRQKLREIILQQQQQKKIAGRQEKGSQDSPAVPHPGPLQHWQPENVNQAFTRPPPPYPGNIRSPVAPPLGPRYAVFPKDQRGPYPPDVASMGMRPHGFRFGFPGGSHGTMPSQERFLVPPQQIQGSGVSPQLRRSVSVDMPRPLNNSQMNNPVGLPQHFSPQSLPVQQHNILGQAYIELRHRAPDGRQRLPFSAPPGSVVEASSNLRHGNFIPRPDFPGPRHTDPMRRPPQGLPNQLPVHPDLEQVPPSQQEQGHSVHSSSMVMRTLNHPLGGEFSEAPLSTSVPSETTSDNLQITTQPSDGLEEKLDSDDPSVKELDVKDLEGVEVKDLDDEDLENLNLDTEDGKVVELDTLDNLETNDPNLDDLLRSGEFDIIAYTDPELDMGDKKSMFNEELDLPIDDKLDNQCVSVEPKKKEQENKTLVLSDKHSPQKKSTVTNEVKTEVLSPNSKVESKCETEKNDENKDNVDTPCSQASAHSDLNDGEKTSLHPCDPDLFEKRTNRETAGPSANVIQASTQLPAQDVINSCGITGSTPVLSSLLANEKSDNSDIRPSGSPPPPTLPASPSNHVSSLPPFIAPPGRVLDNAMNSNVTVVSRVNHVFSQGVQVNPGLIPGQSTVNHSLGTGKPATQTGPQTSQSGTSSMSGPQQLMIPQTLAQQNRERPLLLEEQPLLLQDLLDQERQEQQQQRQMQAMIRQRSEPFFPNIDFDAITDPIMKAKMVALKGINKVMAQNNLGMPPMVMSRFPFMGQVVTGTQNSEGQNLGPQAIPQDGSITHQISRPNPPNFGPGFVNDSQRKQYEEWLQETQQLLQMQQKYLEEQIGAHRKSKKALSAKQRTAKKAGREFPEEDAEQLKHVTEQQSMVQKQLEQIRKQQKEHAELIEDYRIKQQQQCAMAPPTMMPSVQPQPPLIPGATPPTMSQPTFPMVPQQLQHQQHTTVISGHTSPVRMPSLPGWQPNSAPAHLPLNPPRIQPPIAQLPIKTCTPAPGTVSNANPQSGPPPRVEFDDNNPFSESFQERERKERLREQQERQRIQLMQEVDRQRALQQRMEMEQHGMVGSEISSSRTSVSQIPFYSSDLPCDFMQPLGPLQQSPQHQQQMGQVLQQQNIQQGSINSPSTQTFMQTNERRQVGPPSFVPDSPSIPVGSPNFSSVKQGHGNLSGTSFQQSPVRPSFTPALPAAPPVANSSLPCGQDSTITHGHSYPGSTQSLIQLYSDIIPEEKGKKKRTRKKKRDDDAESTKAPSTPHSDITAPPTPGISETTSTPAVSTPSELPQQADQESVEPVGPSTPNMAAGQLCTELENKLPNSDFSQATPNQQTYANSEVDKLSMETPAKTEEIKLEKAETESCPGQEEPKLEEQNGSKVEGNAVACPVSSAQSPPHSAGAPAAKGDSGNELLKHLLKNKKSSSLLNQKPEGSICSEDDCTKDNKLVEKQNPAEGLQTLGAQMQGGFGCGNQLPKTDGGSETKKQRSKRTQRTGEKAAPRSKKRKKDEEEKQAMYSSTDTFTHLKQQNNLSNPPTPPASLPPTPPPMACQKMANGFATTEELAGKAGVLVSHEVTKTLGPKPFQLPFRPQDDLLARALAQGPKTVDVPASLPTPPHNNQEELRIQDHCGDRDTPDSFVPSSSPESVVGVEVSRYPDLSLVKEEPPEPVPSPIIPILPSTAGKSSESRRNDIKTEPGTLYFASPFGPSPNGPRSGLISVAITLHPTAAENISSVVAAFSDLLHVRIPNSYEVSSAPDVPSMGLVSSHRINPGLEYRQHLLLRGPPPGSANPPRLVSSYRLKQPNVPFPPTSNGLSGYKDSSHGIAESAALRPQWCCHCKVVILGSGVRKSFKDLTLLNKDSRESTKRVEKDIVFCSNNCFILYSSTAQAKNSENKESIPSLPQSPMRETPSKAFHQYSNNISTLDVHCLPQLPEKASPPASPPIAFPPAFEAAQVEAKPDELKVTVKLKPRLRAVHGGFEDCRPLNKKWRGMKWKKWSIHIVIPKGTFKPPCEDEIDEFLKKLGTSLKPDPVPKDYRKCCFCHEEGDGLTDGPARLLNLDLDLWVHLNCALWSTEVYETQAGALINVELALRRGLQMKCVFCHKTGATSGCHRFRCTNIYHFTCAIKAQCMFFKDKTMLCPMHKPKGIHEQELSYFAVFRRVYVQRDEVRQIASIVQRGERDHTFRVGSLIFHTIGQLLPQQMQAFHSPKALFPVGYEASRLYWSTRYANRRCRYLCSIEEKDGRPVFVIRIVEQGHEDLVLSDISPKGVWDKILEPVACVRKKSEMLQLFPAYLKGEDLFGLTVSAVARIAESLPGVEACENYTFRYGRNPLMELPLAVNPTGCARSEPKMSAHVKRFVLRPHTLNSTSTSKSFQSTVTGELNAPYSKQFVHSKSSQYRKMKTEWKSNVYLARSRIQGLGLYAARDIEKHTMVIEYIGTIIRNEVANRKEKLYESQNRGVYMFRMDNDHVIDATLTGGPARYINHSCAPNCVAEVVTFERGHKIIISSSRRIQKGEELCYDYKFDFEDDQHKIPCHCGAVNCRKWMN

[6] = target: T2, Tyrosine-protein kinase Tec (Homo sapiens) (UniProt P42680); assay: Selectivity interaction (KinomeScan (DiscoverX)) EUB0001868a TEC; settings: at 1 µM
T2 sequence (whole entry): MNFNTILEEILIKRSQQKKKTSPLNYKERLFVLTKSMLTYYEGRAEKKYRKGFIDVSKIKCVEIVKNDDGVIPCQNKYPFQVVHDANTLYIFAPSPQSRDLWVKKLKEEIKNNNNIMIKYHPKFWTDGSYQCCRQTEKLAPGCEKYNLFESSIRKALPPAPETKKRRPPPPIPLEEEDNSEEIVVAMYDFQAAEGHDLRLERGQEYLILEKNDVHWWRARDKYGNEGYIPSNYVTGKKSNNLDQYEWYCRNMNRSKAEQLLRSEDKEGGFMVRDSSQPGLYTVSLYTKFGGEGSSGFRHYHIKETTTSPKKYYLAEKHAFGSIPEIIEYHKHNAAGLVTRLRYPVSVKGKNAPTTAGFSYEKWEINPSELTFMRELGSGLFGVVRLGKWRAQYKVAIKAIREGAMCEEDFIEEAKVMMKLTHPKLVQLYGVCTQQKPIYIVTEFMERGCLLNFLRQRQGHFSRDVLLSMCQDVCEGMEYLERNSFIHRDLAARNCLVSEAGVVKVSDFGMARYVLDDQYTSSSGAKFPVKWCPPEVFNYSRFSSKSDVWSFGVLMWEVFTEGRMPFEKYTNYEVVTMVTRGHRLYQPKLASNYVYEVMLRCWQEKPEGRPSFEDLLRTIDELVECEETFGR

[7] = target: T3, Aurora kinase C (Homo sapiens) (UniProt Q9UQB9); assay: Selectivity interaction (KinomeScan (DiscoverX)) EUB0001619a AURKC; settings: at 1 µM
T3 sequence (whole entry): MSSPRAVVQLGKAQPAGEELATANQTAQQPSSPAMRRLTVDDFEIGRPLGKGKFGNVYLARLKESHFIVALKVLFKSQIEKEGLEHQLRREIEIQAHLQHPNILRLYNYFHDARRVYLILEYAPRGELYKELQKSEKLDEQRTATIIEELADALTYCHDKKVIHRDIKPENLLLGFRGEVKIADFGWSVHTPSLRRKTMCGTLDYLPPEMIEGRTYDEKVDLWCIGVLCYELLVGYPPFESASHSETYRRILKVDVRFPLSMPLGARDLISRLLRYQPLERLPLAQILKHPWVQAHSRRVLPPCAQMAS

[8] = target: Cyclin-dependent kinase-like 1 (Homo sapiens) (UniProt Q00532); assay: Selectivity interaction (Kinase panel (DSF assay)) EUB0001558a CDKL1
[9] = target: MAP kinase-interacting serine/threonine-protein kinase 1 (Homo sapiens) (UniProt Q9BUB5); assay: Selectivity interaction (KinomeScan (DiscoverX)) EUB0000618a MKNK1; settings: at 10 µM

## COCC(=O)NC/C=C/c1ccc2ncnc(Nc3ccc(Oc4ccc(C)nc4)c(C)c3)c2c1 [CP-724714]
[1]
  % of control: 1.4%

## CN(C(=O)c1cnn2cccnc12)c1cc2c(cc1N1CCOCC1)C(=O)N(C[C@@H](F)C(C)(C)O)C2
[2]
  dTM: 0 K

## C=CC(=O)Nc1cc(-n2c(=O)ccc3cnc4ccc(-c5ccc(NS(C)(=O)=O)cc5)cc4c32)ccc1C
[3]; at 1 µM
  % of control: 100%
[3]; at 10 µM
  % of control: 59%

## O=C(NOC[C@H](O)CO)c1ccc(F)c(F)c1Nc1ccc(I)cc1F
[4]
  % of control: 100%

## Cc1cc(C)cc([C@@H]2c3cc(C)ccc3NC(=O)CN2C(=O)c2ccc(Br)s2)c1
[5]; at 1 µM
  % of activity: 104%
[5]; at 10 µM
  % of activity: 97%

## Cc1cc(-c2ccnc(Nc3cnn(C)c3)n2)ccc1CNC(=O)N1CC(OC(C)C)C1
[6]
  % of control: 46%

## N#Cc1cccc(-c2c[nH]c3ncnc(N4CCOCC4)c23)c1
[7]
  % of control: 43%

## CC(C)(O)[C@H](F)CN1Cc2cc(NC(=O)c3cnn4cccnc34)c(N3CCOCC3)cc2C1=O
[8]
  dTM: -0.4 K

## O[C@H]1CC[C@H](Nc2ncc3nc(Nc4c(F)cc(F)cc4F)n([C@H]4CCOC4)c3n2)CC1
[9]
  % of control: 94%
